Test results published in article PMC7156724, “Potent BRD4 inhibitor suppresses cancer cell-macrophage interaction” (Nature Communications, 2020).
“And” between values parts separate entries of the source, which are not always exact repeats. Equal entries are not always repeated.

Legend:
[1] = test system: MDA-MB231 cells; assay: MTT cell growth assay, MDA-MB231; type: cell-based, human; settings: 5 days
Protocol: (§1) Fig. 2 NHWD-870 inhibited BRD4 phosphorylation and c-MYC expression, and suppressed cell growth. a Representative western blot analysis of p-BRD4 (s484/488), BRD4, c-MYC, and GAPDH after treatment of MDA-MB231, SUM159, A2780 ES-2, and H526 cells with JQ-1 or NHWD-870 at the indicated concentrations for 24 h. GAPDH served as the loading control. Selected from three independent experiments. b MTT assays of H526, A2780, ES-2, and MDA-MB231 cells treated with JQ-1 or NHWD-870 at the indicated concentrations for 5 days. Data are presented as mean ± SEM from three independent experiments. c, d Clonogenic assays of H526, A2780, ES-2 and MDA-MB231 cells treated with 250 nM JQ-1 or NHWD-870 for 5 days. Shown are representative images (c) and quantification of colonies (d). […] Shown are representative images (e) and quantification of relative colony sizes (f). Scale bar, 50 μm. Data are presented as mean ± SEM from five independent experiments. p values were calculated using two-tailed, unpaired t tests in this figure. **p < 0.01; ***p < 0.001. Source data are provided as a Source Data file.
37℃, 5% CO2. […]

[2] = test system: ES-2 cells; assay: Clonogenic (colony formation) assay, ES-2; type: cell-based, human; settings: ES-2, 250 nM, 5 days
Protocol: as §1, with “file. […]” for “file.”
5. Colony formation assay. Cells were seeded in 6-well plates at 3,000 cells/well […]
every week. […] Colony numbers were calculated with imageJ version

[3] = test system: ES-2 cells; assay: 3D matrigel assay, ES-2; type: cell-based, human; settings: ES-2, 100 nM
Protocol: as §1
Single clone spheroids were generated by culturing A2780, ES-2, H526 and MDA-MB231 cells for 16 h as a hanging drop over a humidified plate in a CO2 incubator in their corresponding complete media. […] The relative spheroid sizes were measured with ImageJ version 1.52s using the 15 representative spheroids.

[4] = test system: MDA-MB231 TNBC; assay: MDA-MB231 TNBC xenograft growth; type: in vivo, mouse; set-up: MDA-MB231 tumor size (Sup Fig.9d; quantity and unit not given): unit not given here
Protocol: 4–6 weeks old female BALB/c nude mice were used for most experiments, with the exception of 6–8 weeks old female C57BL/6 mice were used for B16F10 experiments, and 6–8 weeks old male BALB/c nude mice and SD rats were used for pharmacokinetic experiments. All animals were purchased from Shanghai SIPPR-Bk Lab Animal Co., Ltd. All animals were housed under a regimen of 12 h light/12 h dark cycles and specific pathogen-free conditions. 5×10^6 NCI-H526, ES-2, MDA-MB231, A2780, A375, B16F10, and TMD-8 cells (0.1 ml) were injected subcutaneously into female nude mice. The melanoma patient-derived xenograft model was derived from a human melanoma sample (BRAF, NARS and NF1 wild type, and p53 mutant) removed from a patient in Xiangya Hospital. Surgically removed tumor fragments were implanted subcutaneously into female NSG mice. When the tumors grew to ~1000 mm^3, they were harvested and cryopreserved or immediately re-implanted for expansion or experiments. Mouse body weight and tumor sizes were measured every 3 days. Once the tumors grew to 150–200 mm^3, mice were treated with the compounds as described in the Figures. 1 × 10^6 A2780 cells (1 ml) were injected into the abdominal cavity of nude mice. Ascitic volume and tumor weight were measured by an electronic balance. All the procedures were evaluated and approved by the Institutional Animal Care and Use Committee of Central South University and Yale University.
Supplementary Figure 9. […]
PO, oral administration; QD, once daily; BID, twice daily; D, day. (c,d) Tumor growth curves for ES2 ovarian tumor (c), MDA-MB231 breast tumor (d) bearing mice treated with the indicated compounds for 21 days. Compounds were orally administrated once daily. Data are presented as mean ± SEM from 6 different mice. p values were calculated using two-tailed, unpaired t tests.
**, p<0.01; ***, p<0.001. Source data are provided as a Source Data file. […]

Cc1nnn(C)c1-c1cnc2c3c4cnn(C)c4ccc3n([C@H](c3ccccc3)C3CCOCC3)c2c1 [NHWD-870]
MTT assay, relative cell number ([1]; MDA-MB231, 0.1 nM): 0.965 and 0.95 and 0.937
MTT assay, relative cell number ([1]; MDA-MB231, 1 nM): 0.701 and 0.703 and 0.725
MTT assay, relative cell number ([1]; MDA-MB231, 10 nM): 0.368 and 0.306 and 0.338
MTT assay, relative cell number ([1]; MDA-MB231, 100 nM): 0.083 and 0.065 and 0.074
MTT assay, relative cell number ([1]; MDA-MB231, 500 nM): 0
MTT assay, relative cell number ([1]; MDA-MB231, 1000 nM): 0
MTT assay, relative cell number ([1]; MDA-MB231, 5000 nM): 0
MTT assay, relative cell number ([1]; MDA-MB231, 10000 nM): 0
Clone Number (clonogenic assay) [2]: 146 and 155 and 103 and 98 and 133
Clone Size (relative colony size, 3D matrigel assay) [3]: 35.3 and 32.7 and 30.1 and 25.5 and 23.9
MDA-MB231 tumor size (Sup Fig.9d; quantity and unit not given) ([4]; 1mg/kg p.o. QD x 21D, day 0, individual animals): 279.42 and 121.19 and 223.85 and 207.81 and 142.25 and 116.01
MDA-MB231 tumor size (Sup Fig.9d; quantity and unit not given) ([4]; 1mg/kg p.o. QD x 21D, day 3, individual animals): 342.36 and 216.69 and 301.84 and 236.23 and 182.39 and 129.14
MDA-MB231 tumor size (Sup Fig.9d; quantity and unit not given) ([4]; 1mg/kg p.o. QD x 21D, day 7, individual animals): 454.4 and 329.94 and 520.71 and 309.24 and 176.3 and 192.56
MDA-MB231 tumor size (Sup Fig.9d; quantity and unit not given) ([4]; 1mg/kg p.o. QD x 21D, day 10, individual animals): 681 and 486.76 and 545.06 and 482.5 and 217.9 and 268.16
MDA-MB231 tumor size (Sup Fig.9d; quantity and unit not given) ([4]; 1mg/kg p.o. QD x 21D, day 14, individual animals): 889.946 and 639.335 and 784.126 and 538.093 and 253.479 and 345.127
MDA-MB231 tumor size (Sup Fig.9d; quantity and unit not given) ([4]; 1mg/kg p.o. QD x 21D, day 17, individual animals): 973.96 and 796.38 and 1110.48 and 713.45 and 300.77 and 432.71
MDA-MB231 tumor size (Sup Fig.9d; quantity and unit not given) ([4]; 1mg/kg p.o. QD x 21D, day 21, individual animals): 1038.8 and 904.78 and 1426.58 and 1004.43 and 413.96 and 626.93
MDA-MB231 tumor size (Sup Fig.9d; quantity and unit not given) ([4]; 3mg/kg p.o. QD x 21D, day 0, individual animals): 118.16 and 163.39 and 132.22 and 223.66 and 238.14 and 193.21
MDA-MB231 tumor size (Sup Fig.9d; quantity and unit not given) ([4]; 3mg/kg p.o. QD x 21D, day 3, individual animals): 111.38 and 180.22 and 170.04 and 238.46 and 333.75 and 199.82
MDA-MB231 tumor size (Sup Fig.9d; quantity and unit not given) ([4]; 3mg/kg p.o. QD x 21D, day 7, individual animals): 184.36 and 185.35 and 194.47 and 370.49 and 294.2 and 222.64
MDA-MB231 tumor size (Sup Fig.9d; quantity and unit not given) ([4]; 3mg/kg p.o. QD x 21D, day 10, individual animals): 223.77 and 229.36 and 217.46 and 450.48 and 331.57 and 251.49
MDA-MB231 tumor size (Sup Fig.9d; quantity and unit not given) ([4]; 3mg/kg p.o. QD x 21D, day 14, individual animals): 325.631 and 331.431 and 303.664 and 453.402 and 392.114 and 282.288
MDA-MB231 tumor size (Sup Fig.9d; quantity and unit not given) ([4]; 3mg/kg p.o. QD x 21D, day 17, individual animals): 488.17 and 465.37 and 409.38 and 652.35 and 540.67 and 429.56
MDA-MB231 tumor size (Sup Fig.9d; quantity and unit not given) ([4]; 3mg/kg p.o. QD x 21D, day 21, individual animals): 586.22 and 557.41 and 558.02 and 759.6 and 643.46 and 481.28
effect on tumor growth ([4]; MDA-MB231 TNBC, oral once daily 21 days): strong tumor-suppressive effects
